Where “and” joins values, the source holds several entries; their conditions need not be identical. Identical values can stand only once.
How the values were obtained:
[1] = PET imaging studies in rhesus monkeys; settings: rhesus monkey, in vivo, Distribution volume (VT), 1T model
Protocol: (§1) Experiments were performed in rhesus monkeys (Macaca mulatta). Rhesus monkeys were sedated using intramuscular (i.m.) injection of ketamine and glycopyrrolate approximately 2 hours before the PET scan and anesthesia was maintained with isoflurane (1.5%-2.5%) for the duration of the experiments. Baseline PET scans were obtained after intravenous (i.v.) injection of ^11C-3, ^18F-3, ^18F-4, ^18F-5, ^18F-10, ^18F-11, or ^18F-12.
(§2) Arterial blood samples were collected during the PET scans to calculate the plasma input function and to determine the unmetabolized parent fraction using the automatic column-switching HPLC system. Plasma free fraction (fp) was measured in triplicate using the ultrafiltration method.
(§3) PET scans of the brain were acquired using the FOCUS 220 PET scanner (Siemens Preclinical Solutions) with a reconstructed image resolution of approximately 1.5 mm. After a transmission scan, the radioligand was injected i.v. as a 3 min slow bolus by an infusion pump (PHD 22/2000; Harvard Apparatus). List-mode data were acquired for 120-180 min and binned into sinograms with an applicable number of frames. Scan data were reconstructed with a Fourier rebinning/filtered backprojection algorithm with corrections for attenuation, scanner normalization, radiation scatter, and randoms. Regions of interest were manually delineated on a single representative anatomic rhesus monkey MR image registered to a template image. The regions used in this study were amygdala, brain stem, caudate, centrum semiovale, cerebellum, cingulate cortex, frontal cortex, globus pallidus, insular cortex, nucleus accumbens, occipital cortex, pons, putamen, temporal cortex, and thalamus. Registration parameters were obtained to apply the regions of interest to individual PET scans, and regional time-activity curves were generated. Regional time-activity curves of the brain were analyzed with the 1-tissue-(1T) compartment model. Fit quality was compared with the 2-tissue model and the multilinear analysis method to calculate VT.
(§4) Typical injected radioactivity amount was 0.5-5 mCi per injection, with typical injected mass amount of 1-10 μg.
(§5) Specific binding to SV2A was further examined for ^11C-3, ^18F-3, and ^18F-11 in blocking studies, where levetiracetam or UCB-J ((R)-3) was i.v. infused before injection of the radiotracers.

SV2A [2] = target: SV2A (Macaca mulatta, UniProt H9EQH8); assay: PET imaging studies in rhesus monkeys; settings: for Binding potential (BPND): from VT, centrum semiovale as reference region; for Displacement of radiotracer binding by levetiracetam: levetiracetam 30 mg/kg i.v. infused 60 or 90 min post injection of the radiotracer; for Uptake of radiotracer in blocking studies: levetiracetam (30 mg/kg) or UCB-J (150 μg/kg) i.v. 10 min before radiotracer injection
SV2A (Macaca mulatta, UniProt H9EQH8), sequence (H9EQH8 1-742): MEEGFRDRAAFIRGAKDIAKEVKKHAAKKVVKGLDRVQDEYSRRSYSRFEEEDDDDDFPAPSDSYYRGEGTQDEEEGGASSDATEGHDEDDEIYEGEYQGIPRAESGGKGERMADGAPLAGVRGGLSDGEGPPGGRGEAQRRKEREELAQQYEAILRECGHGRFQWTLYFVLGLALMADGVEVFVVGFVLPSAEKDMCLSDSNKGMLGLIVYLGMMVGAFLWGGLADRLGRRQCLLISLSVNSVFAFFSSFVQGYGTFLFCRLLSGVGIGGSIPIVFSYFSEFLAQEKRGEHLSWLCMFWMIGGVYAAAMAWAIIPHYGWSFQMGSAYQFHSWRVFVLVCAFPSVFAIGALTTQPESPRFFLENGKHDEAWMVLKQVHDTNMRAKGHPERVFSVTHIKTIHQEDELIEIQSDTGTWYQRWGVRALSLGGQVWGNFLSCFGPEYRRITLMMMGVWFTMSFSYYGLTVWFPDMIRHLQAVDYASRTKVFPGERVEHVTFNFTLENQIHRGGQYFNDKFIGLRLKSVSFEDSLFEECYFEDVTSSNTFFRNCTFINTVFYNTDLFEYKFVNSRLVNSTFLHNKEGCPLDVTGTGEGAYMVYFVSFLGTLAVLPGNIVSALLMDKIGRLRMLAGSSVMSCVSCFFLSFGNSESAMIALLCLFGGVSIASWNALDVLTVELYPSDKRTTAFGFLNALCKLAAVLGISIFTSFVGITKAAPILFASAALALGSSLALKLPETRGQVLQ
Protocol: as §1, §2, §3, §4, §5

[3] = Plasma free fraction (fp) by ultrafiltration method; assay type: in vitro ADME, rhesus monkeys (Macaca mulatta); settings: plasma (from arterial blood samples), rhesus monkey plasma
SV2A [4] = target: SV2A (Papio anubis, UniProt A0A096NYL0); assay: PET measurement in an olive baboon; assay type: in vivo, olive baboon (Papio anubis); settings: gray matter regions, baboon brain
SV2A (Papio anubis, UniProt A0A096NYL0), sequence (A0A096NYL0 1-742): as the sequence (H9EQH8 1-742) above, with G108S counted along it
Protocol: Experiments were conducted in one olive baboon (P. anubis). […] PET images of the brain were acquired using a Siemens Biograph mCT system (Siemens Medical Solutions). […] List-mode data were acquired for 120 min and binned into sinograms with the following frame timing: 6×30 sec; 3×1 min; 2×2 min; and 22×5 min.
PET data were reconstructed with a TrueX+TOF algorithm with corrections for attenuation, normalization, scatter and randoms. Regions of interest (ROIs) were manually delineated on a single representative anatomical baboon magnetic resonance image (MRI) registered to a template image. […] MRI-to-PET registration parameters were obtained to apply the ROIs to individual PET scans, and regional time-activity curves (TACs) were generated. VT values were estimated using a one-tissue (1T) compartment model with the metabolite-corrected input function.
Arterial blood samples were collected to determine the plasma input function, including measurement of the unmetabolized ^11C-3 fraction. The free fraction of ^11C-3 in plasma was determined in arterial blood samples taken immediately before ^11C-3 injection.

SV2A [5] = target: T1, SV2A (Homo sapiens (Human), UniProt Q7L0J3); assay: PET imaging with (R)-11C-3 in patients with AD dementia and MCI; assay type: in vivo; settings: AD/MCI patients vs cognitively normal subjects
T1 sequence (Q7L0J3 whole entry, looked up): as the sequence (H9EQH8 1-742) above, with S64G, V572I counted along it

SV2A [6] = target: T1, SV2A; assay: PET imaging with (R)-11C-3 in patients with Parkinson's disease; assay type: in vivo; settings: PD subjects vs age-matched healthy controls
SV2A [7] = target: T1, SV2A; assay: PET imaging with (R)-11C-3 in patients with temporal lobe epilepsy
Protocol: PET imaging with (R)-^11C-3 was performed in healthy human subjects and patients with various disorders to determine if SV2A imaging can be used as an in vivo biomarker to detect changes in synaptic density in human diseases.
PET imaging with (R)-^11C-3 was carried out in ten healthy control subjects and nine patients of temporal lobe epilepsy (TLE) with mesial temporal sclerosis (MTS).

[8] = rhesus monkey brain after i.v. injection

Row | SMILES | Kp ([1]; Amygdala) | Kp ([1]; Brainstem) | Kp ([1]; Caudate nucleus) | Kp ([1]; Centrum semiovale) | Binding potential (BPND) (SV2A [2]; Amygdala) | Binding potential (BPND) (SV2A [2]; Brainstem) | Binding potential (BPND) (SV2A [2]; Caudate nucleus) | Binding potential (BPND) (SV2A [2]; Cerebellum) | Binding potential (BPND) (SV2A [2]; Cingulate cortex) | Binding potential (BPND) (SV2A [2]; Frontal cortex) | Binding potential (BPND) (SV2A [2]; Globus pallidus) | Binding potential (BPND) (SV2A [2]; Hippocampus) | Binding potential (BPND) (SV2A [2]; Insular cortex) | Binding potential (BPND) (SV2A [2]; Nucleus accumbens) | Binding potential (BPND) (SV2A [2]; Occipital cortex) | Binding potential (BPND) (SV2A [2]; Pons) | Binding potential (BPND) (SV2A [2]; Putamen) | Binding potential (BPND) (SV2A [2]; Temporal cortex) | Binding potential (BPND) (SV2A [2]; Thalamus) | fraction unbound [3] | other results
1 | Cc1cnccc1CN1CC(c2cc(F)cc(F)c2)CC1=O (stereo not drawn) [^18F-5, 4-(3,5-Difluorophenyl)-1-((3-methylpyridin-4-yl)methyl)pyrrolidin-2-one] | 20.5 ± 6 | 15 ± 4 | 31.9 ± 4.8 | 8.3 ± 2.4 | 1.70 ± 1.51 | 0.59 ± 0.57 | 2.09 ± 1.37 | 2.16 ± 0.15 | 4.49 ± 0.50 | 4.26 ± 0.57 | 1.04 ± 0.09 | 2.36 ± 0.51 | 4.16 ± 0.42 | 3.09 ± 2.04 | 3.75 ± 0.11 | 0.80 ± 0.03 | 3.03 ± 0.55 | 3.60 ± 0.22 | 3.08 ± 0.96 | 0.42 ± 0.03 | Kp ([1]; Cerebellum): 26.1 ± 6.5; Kp ([1]; Cingulate cortex): 45 ± 9.2; Kp ([1]; Frontal cortex): 43 ± 8.1; Kp ([1]; Globus pallidus): 19.3 ± 2.4; Kp ([1]; Hippocampus): 27.3 ± 4; Kp ([1]; Insular cortex): 42.3 ± 9.1; Kp ([1]; Nucleus accumbens): 41.9 ± 7.8; Kp ([1]; Occipital cortex): 39.3 ± 10.7; Kp ([1]; Pons): 14.9 ± 4.1; Kp ([1]; Putamen): 32.8 ± 5.2; Kp ([1]; Temporal cortex): 37.9 ± 9.4; Kp ([1]; Thalamus): 32.7 ± 1.9; Displacement of radiotracer binding by levetiracetam (SV2A [2]): reduced the binding of these tracers to a significant extent; time to SUV peak in gray matter regions (SV2A [2]; [8]): slower
2 | O=C1CC(c2cc(F)c(F)c(F)c2)CN1Cc1ccncc1F (stereo not drawn) [^18F-10, 1-((3-fluoropyridin-4-yl)methyl)-4-(3,4,5-trifluorophenyl)pyrrolidin-2-one] | 9.8 | 10.2 | 13.8 | 10.1 | −0.03 | 0.01 | 0.37 | 0.22 | 0.59 | 0.46 | 0.14 | 0.12 | 0.48 | 0.43 | 0.53 | 0.04 | 0.39 | 0.39 | 0.19 | 0.52 | Kp ([1]; Cerebellum): 12.3; Kp ([1]; Cingulate cortex): 16; Kp ([1]; Frontal cortex): 14.7; Kp ([1]; Globus pallidus): 11.5; Kp ([1]; Hippocampus): 11.3; Kp ([1]; Insular cortex): 14.9; Kp ([1]; Nucleus accumbens): 14.4; Kp ([1]; Occipital cortex): 15.5; Kp ([1]; Pons): 10.5; Kp ([1]; Putamen): 14; Kp ([1]; Temporal cortex): 14; Kp ([1]; Thalamus): 12; time to SUV peak in gray matter regions (SV2A [2]; [8]): ≤ 10 min
3 | Cc1cnccc1CN1CC(c2cccc(F)c2)CC1=O (stereo not drawn) [^18F-11, 4-(3-Fluorophenyl)-1-((3-methylpyridin-4-yl)methyl)pyrrolidin-2-one] | 8.7 ± 2.4 | 6.6 ± 2.9 | 13.2 ± 2.6 | 4.4 ± 1.5 | 1.05 ± 0.29 | 0.53 ± 0.42 | 2.29 ± 0.88 | 1.59 ± 0.76 | 3.49 ± 1.52 | 3.29 ± 1.40 | 1.13 ± 0.61 | 1.58 ± 0.59 | 3.00 ± 1.21 | 3.12 ± 1.26 | 2.90 ± 1.50 | 0.46 ± 0.51 | 2.21 ± 0.89 | 2.63 ± 1.33 | 2.18 ± 0.77 | 0.42 ± 0.02 | Kp ([1]; Cerebellum): 10.8 ± 2.6; Kp ([1]; Cingulate cortex): 18.2 ± 2.2; Kp ([1]; Frontal cortex): 17.4 ± 2.2; Kp ([1]; Globus pallidus): 8.8 ± 1.8; Kp ([1]; Hippocampus): 10.7 ± 2.8; Kp ([1]; Insular cortex): 16.8 ± 2.6; Kp ([1]; Nucleus accumbens): 16.4 ± 2.9; Kp ([1]; Occipital cortex): 15.7 ± 2.7; Kp ([1]; Pons): 6.4 ± 3.5; Kp ([1]; Putamen): 13.6 ± 2.3; Kp ([1]; Temporal cortex): 14.7 ± 2.5; Kp ([1]; Thalamus): 13.2 ± 2.1; Displacement of radiotracer binding by levetiracetam (SV2A [2]): reduced the binding of these tracers to a significant extent; Uptake of radiotracer in blocking studies (SV2A [2]): reduced to background levels; time to SUV peak in gray matter regions (SV2A [2]; [8]): ≤ 10 min
4 | Cc1cnccc1CN1CC(c2cc(F)c(F)c(F)c2)CC1=O (single isomer, unassigned) [^11C-3, 1-((3-methylpyridin-4-yl)methyl)-4-(3,4,5-trifluorophenyl) pyrrolidin-2-one] |  |  |  |  | 0.85 ± 0.34 | 0.76 ± 0.21 | 2.40 ± 0.72 | 1.68 ± 0.31 | 3.17 ± 0.84 | 3.18 ± 0.91 | 1.10 ± 0.28 | 1.59 ± 0.39 | 3.12 ± 0.81 | 3.04 ± 0.69 | 2.97 ± 0.65 | 0.75 ± 0.21 | 2.42 ± 0.63 | 2.79 ± 0.61 | 2.03 ± 0.62 | 0.44 ± 0.01 | Uptake of radiotracer in blocking studies (SV2A [2]): reduced to background levels; time to SUV peak in gray matter regions (SV2A [2]; rhesus monkey, in vivo, iv): slower; peak uptake (standardized uptake value, SUV) (SV2A [4]): 10-15; time to peak uptake after injection (SV2A [4]): 6 to 16 min; reduction in hippocampal VT (SV2A [5]; P=0.001): 28%; reduction in hippocampal SV2A binding (BPND) (SV2A [5]; P=0.005): 41%; decrease in BPND (SV2A [6]; cortical regions): 16%-20%; decrease in VT (SV2A [6]; cortical regions, listed as (R)-^11C-3): 19-23% and 19%-23%; decrease in BPND (SV2A [6]; putamen): 16%; decrease in VT (SV2A [6]; putamen): 15%; decrease in BPND (SV2A [6]; substantia nigra): 33%; decrease in VT (SV2A [6]; substantia nigra): 19%; asymmetries in binding relative to 18F-FDG (SV2A [7]; TLE subjects with MTS): 2.3 fold; BPND asymmetry indices (SV2A [7]; hippocampus, nine TLE subjects with MTS): −38±21%

From patent US11518754B2, “Radiolabeled pharmaceuticals and methods of making and using same” (YALE UNIVERSITY, priority 2017, dated 2022)
